Assays:
PC-3 cells [1] = test: Immunofluorescence staining of microtubules in PC-3 cells; type: cell-based, human; details: PC-3, 24 h; for microtubule morphology: equitoxic concentrations: 0.2 µM 4, 0.2 µM CA-4, 5 µM VIN, 0.2 µM PXL; for dose-dependent effects on microtubule morphology: compounds 0.2, 2 or 20 µM, CA-4 0.002 or 20 µM
[2] = test system: KB (epidermoid carcinoma of the nasopharynx); test: SRB antiproliferative assay, KB; type: cell-based, human; details: for IC50: read-out: IC50 KB, 72 h; for IC50 KB: 72 h
[3] = test system: KB-VIN (P-gp-overexpressing MDR subline of KB); test: SRB antiproliferative assay, KB-VIN; type: cell-based, human; details: for IC50: read-out: IC50 KB-VIN, 72 h
PC-3 (prostate cancer) = test: SRB antiproliferative assay, PC-3; type: cell-based, human; details: for IC50: read-out: IC50 PC-3; for IC50 / IC50 PC-3: SRB, 72 h
A549 (lung carcinoma) = test: SRB antiproliferative assay, A549; type: cell-based, human; details: for IC50: read-out: IC50 A549, 72 h; for IC50 A549: 72 h
[4] = test system: MDA-MB-231 (triple-negative breast cancer); test: SRB antiproliferative assay, MDA-MB-231; type: cell-based, human; details: read-out: IC50 MDA-MB-231, 72 h
[5] = test system: SK-BR-3 (HER2-overexpressing breast cancer); test: SRB antiproliferative assay, SK-BR-3; type: cell-based, human; details: for IC50: read-out: IC50 SK-BR3, 72 h
[6] = test system: MCF-7 (estrogen-receptor-positive, HER2-negative breast cancer); test: SRB antiproliferative assay, MCF-7; type: cell-based, human; details: read-out: IC50 MCF-7, 72 h
[7] = test system: ZR-75-1 (estrogen-receptor-positive, HER2-positive breast cancer); test: SRB antiproliferative assay, ZR-75-1; type: cell-based, human; details: read-out: IC50 ZR-75-1, 72 h
bovine brain tubulin [8] = target: T1, bovine brain tubulin (Bos taurus, UniProt P81947+Q6B856); test: Inhibition of purified tubulin assembly; type: biochemical
KB-VIN cells [9] = test: Tubulin assembly in KB-VIN cells; type: cell-based, human; details: data not shown
[10] = test system: tumor cell lines overexpressing P-gp; details: cited from earlier work
[11] = test system: HepG2 (hepatocellular carcinoma); test: SRB antiproliferative assay, HepG2; type: cell-based, human; details: for IC50: read-out: IC50 Hep-G2, 72 h; for IC50 Hep-G2: 72 h
[12] = test system: HCT-8 (human colon adenocarcinoma); test: SRB antiproliferative assay, HCT-8; type: cell-based; details: for IC50: read-out: IC50 HCT-8; for IC50 / IC50 HCT-8: SRB, 72 h
bovine brain tubulin [13] = target: T1, bovine brain tubulin; test: Inhibition of [3H]colchicine binding to tubulin; details: for ICB, percent inhibition of colchicine binding: 5 µM [3H]colchicine, 1 µM tubulin, 5 µM test compound
PC-3 cells [14] = test: Cell cycle analysis by flow cytometry; type: cell-based, human; details: 2 µM, 24 h
human tumor cell lines = test: SRB antiproliferative assay, comparison across tumor cell lines; type: cell-based
KB cells = test: Cell cycle analysis by flow cytometry; type: cell-based, human; details: 6 or 24 h, PXL 0.02 µM, 4 0.5 µM, 8 2 µM
KB-VIN cells [15] = test: Cell cycle analysis by flow cytometry; type: cell-based, human; details: 6 or 24 h, PXL 3 µM, 4 0.5 µM, 8 2 µM

T1 sequence (P81947 whole entry): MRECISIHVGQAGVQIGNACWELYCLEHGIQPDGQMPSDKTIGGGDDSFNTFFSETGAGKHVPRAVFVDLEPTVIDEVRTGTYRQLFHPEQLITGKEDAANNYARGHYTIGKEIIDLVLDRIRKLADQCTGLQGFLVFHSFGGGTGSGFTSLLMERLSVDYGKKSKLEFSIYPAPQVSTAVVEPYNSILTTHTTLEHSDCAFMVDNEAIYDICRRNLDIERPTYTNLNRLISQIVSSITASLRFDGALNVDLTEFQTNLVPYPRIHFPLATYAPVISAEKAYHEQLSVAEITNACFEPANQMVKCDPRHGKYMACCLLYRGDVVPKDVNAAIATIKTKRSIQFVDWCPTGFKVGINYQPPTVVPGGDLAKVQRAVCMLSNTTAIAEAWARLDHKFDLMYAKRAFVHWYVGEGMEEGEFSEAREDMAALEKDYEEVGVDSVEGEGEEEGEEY
T1 sequence (Q6B856 whole entry): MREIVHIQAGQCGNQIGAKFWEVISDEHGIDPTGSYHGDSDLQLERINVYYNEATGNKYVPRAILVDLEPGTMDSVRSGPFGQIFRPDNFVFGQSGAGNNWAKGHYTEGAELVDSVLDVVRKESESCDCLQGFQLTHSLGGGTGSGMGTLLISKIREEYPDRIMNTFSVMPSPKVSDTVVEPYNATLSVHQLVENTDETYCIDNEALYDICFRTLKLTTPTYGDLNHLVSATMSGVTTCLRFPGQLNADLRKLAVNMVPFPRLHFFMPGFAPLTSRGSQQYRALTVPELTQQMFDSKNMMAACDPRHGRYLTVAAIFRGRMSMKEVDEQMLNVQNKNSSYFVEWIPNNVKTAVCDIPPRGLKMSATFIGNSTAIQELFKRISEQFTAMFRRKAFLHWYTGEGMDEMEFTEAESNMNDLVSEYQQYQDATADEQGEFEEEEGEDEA

Structure (SMILES): COc1ccc(/C=C\c2cc(OC)c(OC)c(OC)c2)cc1O [CA-4, combretastatin A-4, reference compound]
- microtubule morphology (PC-3 cells [1]): both depolymerization of interphase microtubules and disruption of mitotic spindles
- dose-dependent effects on microtubule morphology (PC-3 cells [1]): Dose-dependent disruption of both interphase microtubules and spindles

Structure (SMILES): CC1=C(O)C(C)(C)c2oc(-c3ccccc3)cc(=O)c2C1=O [Compound 1, Desmosdumotin B, reference compound]
- IC50 [2]: > 135 µM
- IC50 [3]: 6.76 µM
- IC50 (PC-3 (prostate cancer)): > 40 µM
- IC50 (A549 (lung carcinoma)): > 40 µM
- IC50 [4]: > 40 µM
- IC50 [5]: > 40 µM
- IC50 [6]: > 40 µM
- IC50 [7]: > 40 µM
- ITA, inhibition of purified tubulin assembly, EC50 (bovine brain tubulin [8]; 10 µM tubulin, 0.4 mM GTP, 30 °C, NA = not active): no effects on tubulin assembly
- effect on tubulin assembly in cells (KB-VIN cells [9]): no effects on tubulin assembly
- selective index (SI), IC50 against non-MDR cells divided by IC50 against MDR cells [10]: > 20

Structure (SMILES): CCC1=C(O)c2c(oc(-c3ccccc3)cc2=O)C(CC)(CC)C1=O [Compound 2, 6,8,8-triethyldesmosdumotin B]
- selective index (SI), IC50 against non-MDR cells divided by IC50 against MDR cells [10]: > 220

Structure (SMILES): CCC1=C(O)c2c(oc(-c3csc4cccc(O)c34)cc2=O)C(CC)(CC)C1=O [Compound 6, 2-(4′-Hydroxybenzo[b]thiophen-3′-yl)-6,8,8-triethyldesmos-dumotin B]
- IC50 [2]: 2.01 µM
- IC50 (PC-3 (prostate cancer)): 1.73 µM
- IC50 (A549 (lung carcinoma)): 1.78 µM
- IC50 [11]: 1.29 µM
- IC50 [12]: 1.71 µM
- IC50 [4]: 0.71 µM
- IC50 [5]: 0.65 µM
- IC50 [6]: 2.75 µM
- IC50 [7]: 11.6 µM
- inhibitory effect on tubulin assembly, fold greater than 8 (bovine brain tubulin [8]; 6 compared with 8): 2 fold
- ICB, percent inhibition of colchicine binding (bovine brain tubulin [13]): 70%
- inhibitory effect on colchicine binding, fold greater than 8 (bovine brain tubulin [13]; 6 compared with 8): 2 fold
- effect on cell cycle distribution (PC-3 cells [14]): efficiently induced accumulation of G2/M phase cells
- dose-dependent effects on microtubule morphology (PC-3 cells [1]): Dose-dependent disruption of both interphase microtubules and spindles

Structure (SMILES): CCC1=C(O)c2c(oc(-c3csc4ccc(O)cc34)cc2=O)C(CC)(CC)C1=O [Compound 7, 2-(5′-Hydroxybenzo[b]thiophen-3′-yl)-6,8,8-triethyldesmos-dumotin B]
- ICB, percent inhibition of colchicine binding (bovine brain tubulin [13]): 32%

Structure (SMILES): CCC1=C(O)c2c(oc(-c3csc4cc(O)ccc34)cc2=O)C(CC)(CC)C1=O [Compound 8, 2-(6′-Hydroxybenzo[b]thiophen-3′-yl)-6,8,8-triethyldesmos-dumotin B]
- ICB, percent inhibition of colchicine binding (bovine brain tubulin [13]): 39%

Structure (SMILES): CCC1=C(O)c2c(oc(-c3csc4c(O)cccc34)cc2=O)C(CC)(CC)C1=O [Compound 9, 2-(7′-Hydroxybenzo[b]thiophen-3′-yl)-6,8,8-triethyldesmos-dumotin B]
- IC50 [2]: 1.28 µM
- IC50 [3]: 1.12 µM
- IC50 (PC-3 (prostate cancer)): 1.47 µM
- IC50 (A549 (lung carcinoma)): 2.04 µM
- IC50 [11]: 3.01 µM
- fold reduced inhibitory effect against HCT-8 ([12]; compared with 6 and 8): more than 5 fold
- IC50 [12]: 10.6 µM
- ICB, percent inhibition of colchicine binding (bovine brain tubulin [13]): 37%
- effect on cell cycle distribution (PC-3 cells [14]): efficiently induced accumulation of G2/M phase cells
- dose-dependent effects on microtubule morphology (PC-3 cells [1]): Dose-dependent disruption of both interphase microtubules and spindles

Structure (SMILES): CCC1=C(O)c2c(oc(-c3csc4cccc(OC)c34)cc2=O)C(CC)(CC)C1=O [Compound 10, 2-(4′-Methoxybenzo[b]thiophen-3′-yl)-6,8,8-triethyldes-mosdumotin B]
- IC50 KB [2]: NA ^e (NA, not active (IC50 > 10 µg/mL))
- IC50 [3]: 11.8 µM
- IC50 PC-3 (PC-3 (prostate cancer)): NA (NA, not active (IC50 > 10 µg/mL))
- IC50 A549 (A549 (lung carcinoma)): NA (NA, not active (IC50 > 10 µg/mL))
- IC50 Hep-G2 [11]: NA (NA, not active (IC50 > 10 µg/mL))
- IC50 HCT-8 [12]: NA (NA, not active (IC50 > 10 µg/mL))
- IC50 [5]: 18.7 µM

Structure (SMILES): CCC1=C(O)c2c(oc(-c3csc4ccc(OC)cc34)cc2=O)C(CC)(CC)C1=O [Compound 11, 2-(5′-Methoxybenzo[b]thiophen-3′-yl)-6,8,8-triethyldes-mosdumotin B]
- IC50 KB [2]: NA (NA, not active (IC50 > 10 µg/mL))
- IC50 KB-VIN ([3]; 72 h): NA (NA, not active (IC50 > 10 µg/mL))
- IC50 PC-3 (PC-3 (prostate cancer)): NA (NA, not active (IC50 > 10 µg/mL))
- IC50 A549 (A549 (lung carcinoma)): NA (NA, not active (IC50 > 10 µg/mL))
- IC50 Hep-G2 [11]: NA (NA, not active (IC50 > 10 µg/mL))
- IC50 [12]: 16.2 µM
- IC50 SK-BR3 ([5]; 72 h): NA (NA, not active (IC50 > 10 µg/mL))

Structure (SMILES): CCC1=C(O)c2c(oc(-c3csc4c(OC)cccc34)cc2=O)C(CC)(CC)C1=O [Compound 12, 2-(7′-Methoxybenzo[b]thiophen-3′-yl)-6,8,8-triethyldes-mosdumotin B]
- IC50 [2]: 12.1 µM
- IC50 [3]: 10.7 µM
- IC50 (PC-3 (prostate cancer)): 8.51 µM
- IC50 (A549 (lung carcinoma)): 15.8 µM
- IC50 Hep-G2 [11]: NA (NA, not active (IC50 > 10 µg/mL))
- IC50 HCT-8 [12]: NA (NA, not active (IC50 > 10 µg/mL))
- IC50 [4]: 8.17 µM
- IC50 [5]: 7.97 µM
- IC50 [6]: 7.22 µM
- IC50 [7]: 9.81 µM

Structure (SMILES): CCC1=C(O)c2c(oc(-c3sc4ccccc4c3O)cc2=O)C(CC)(CC)C1=O [Compound 14, 2-(3′-Hydroxybenzo[b]thiophen-2′-yl)-6,8,8-triethyldesmos-dumotin B]
- IC50 [2]: 19.6 µM
- IC50 [3]: 6.61 µM
- fold reduced activity against PC-3 (PC-3 (prostate cancer); compared with parent compound 13): 4 fold
- IC50 (PC-3 (prostate cancer)): 14.6 µM
- IC50 (A549 (lung carcinoma)): 12.5 µM
- IC50 [11]: 15.8 µM
- IC50 [12]: 16.5 µM
- IC50 [5]: 12.1 µM

Structure (SMILES): CCC1=C(O)c2c(oc(-c3ccc(O)c4ccccc34)cc2=O)C(CC)(CC)C1=O [Compound 16, 2-(4′-Hydroxynaphthalen-1′-yl)-6,8,8-triethyldesmosdumo-tin B]
- IC50 [2]: 0.74 µM
- IC50 [3]: 0.45 µM
- IC50 (PC-3 (prostate cancer)): 1.11 µM
- IC50 (A549 (lung carcinoma)): 0.94 µM
- IC50 [11]: 0.37 µM
- IC50 [12]: 1.02 µM
- ICB, percent inhibition of colchicine binding (bovine brain tubulin [13]): 54%
- antiproliferative effect, times greater than parent compound 5 (human tumor cell lines; HepG2, KB and KB-VIN): 2–6 times

Structure (SMILES): CCC1=C(O)c2c(oc(-c3ccc4cc(O)ccc4c3)cc2=O)C(CC)(CC)C1=O [Compound 19, 2-(6′-Hydroxynaphthalen-2′-yl)-6,8,8-triethyldesmosdumo-tin B]
- IC50 [2]: 19.9 µM
- IC50 [3]: 13.7 µM
- IC50 (PC-3 (prostate cancer)): 12.9 µM
- IC50 (A549 (lung carcinoma)): 14.9 µM
- IC50 [11]: 13.4 µM
- IC50 [12]: 14.1 µM
- IC50 [5]: 13.8 µM
- fold less active than 15 and 16 (human tumor cell lines; generally, over the tested cell lines): ~10 fold

Structure (SMILES): CC(=O)O[C@H]1C(=O)[C@@]2(C)[C@H]([C@H](OC(=O)c3ccccc3)[C@]3(O)C[C@H](OC(=O)[C@H](O)[C@@H](NC(=O)c4ccccc4)c4ccccc4)C(C)=C1C3(C)C)[C@]1(OC(C)=O)CO[C@@H]1C[C@@H]2O [PXL, paclitaxel, reference compound]
- effect on cell cycle distribution (KB cells): significantly impacted the cell cycle
- effect on cell cycle distribution (KB-VIN cells [15]): did not show any effect
- microtubule morphology (PC-3 cells [1]): inhibited the onset of mitosis and arrested cells at prometaphase with condensed chromosomes

Structure (SMILES): CC[C@]1(O)C[C@H]2CN(CCc3c([nH]c4ccccc34)[C@@](C(=O)OC)(c3cc4c(cc3OC)N(C=O)[C@H]3[C@@](O)(C(=O)OC)[C@H](OC(C)=O)[C@]5(CC)C=CCN6CC[C@]43[C@@H]65)C2)C1 [VIN, vincristine, reference compound]
- microtubule morphology (PC-3 cells [1]): tubulin paracrystal formation
